Legend:
CDK4 = CDK4 (Homo sapiens (Human), UniProt P11802); assay: CDK4 protein kinase activity, Caliper mobility shift assay; format: biochemical; details: GST-CDK4(1-303 end), substrate Peptide FAM-P8, 28° C. for 3 h
Method: (§1) activity assay: The CDK4 protein kinase activity was measured using the Caliper mobility shift assay (see J. Biomol. Screen, 2009, PP31). The test compound was dissolved in DMSO and diluted with a kinase buffer solution (20 mM HEPES-pH 7.5, 0.01% Triton X-100, 10 mM MgCl2, 2 mM DTT) and 5 μL of compound at 5-fold final concentration of reaction dissolved in 10% DMSO was added in a 384-well plate. The compound-free control well was 5 μL of 10% DMSO, and the no-activity control well was 5 μL of kinase buffer. 10 μL of a 2.5-fold diluted CDK4 enzyme solution (GST-CDK4(1-303 end)) was added and incubated at room temperature for 10 min, and then 10 μL of the 2.5-fold diluted substrate solution Peptide FAM-P8 was added. The reaction was stopped by adding 25 μL of stop solution after incubation at 28° C. for 3 h, and the conversion rate data was read on a Caliper EZ Reader II (Caliper Life Sciences) and the conversion rate was converted to inhibition rate data according to above method. Among them, the inhibition rate %=(max−conversion)/(max−min)×100%.

CDK6 = CDK6 (Homo sapiens (Human), UniProt Q00534); assay: CDK6 protein kinase activity, Caliper mobility shift assay; format: biochemical; details: GST-CDK6(1-326 end), substrate Peptide FAM-P8, 28° C. for 3 h
Method: as §1, with “Activity Assay:” for “activity assay:”, “CDK6” for “CDK4”, “(GST-CDK6(1-326” for “(GST-CDK4(1-303”

Sequence of CDK4 (P11802 whole entry): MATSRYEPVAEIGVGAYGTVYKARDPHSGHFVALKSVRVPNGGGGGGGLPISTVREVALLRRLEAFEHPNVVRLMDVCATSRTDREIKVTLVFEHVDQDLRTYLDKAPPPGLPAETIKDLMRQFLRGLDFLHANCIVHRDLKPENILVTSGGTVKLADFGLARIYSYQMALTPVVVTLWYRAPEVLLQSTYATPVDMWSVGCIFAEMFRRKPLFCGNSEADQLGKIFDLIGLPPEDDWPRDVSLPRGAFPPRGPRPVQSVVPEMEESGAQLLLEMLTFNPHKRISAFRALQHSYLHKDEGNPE
Sequence of CDK4 (P30281 whole entry partner): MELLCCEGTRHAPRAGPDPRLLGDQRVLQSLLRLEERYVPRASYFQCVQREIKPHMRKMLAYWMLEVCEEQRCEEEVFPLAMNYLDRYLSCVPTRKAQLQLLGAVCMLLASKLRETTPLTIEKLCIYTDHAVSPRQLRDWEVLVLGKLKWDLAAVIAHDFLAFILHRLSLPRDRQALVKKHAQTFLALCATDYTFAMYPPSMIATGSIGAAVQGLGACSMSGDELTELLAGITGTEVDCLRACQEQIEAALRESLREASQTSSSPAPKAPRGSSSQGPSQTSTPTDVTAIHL
Sequence of CDK6 (Q00534 whole entry): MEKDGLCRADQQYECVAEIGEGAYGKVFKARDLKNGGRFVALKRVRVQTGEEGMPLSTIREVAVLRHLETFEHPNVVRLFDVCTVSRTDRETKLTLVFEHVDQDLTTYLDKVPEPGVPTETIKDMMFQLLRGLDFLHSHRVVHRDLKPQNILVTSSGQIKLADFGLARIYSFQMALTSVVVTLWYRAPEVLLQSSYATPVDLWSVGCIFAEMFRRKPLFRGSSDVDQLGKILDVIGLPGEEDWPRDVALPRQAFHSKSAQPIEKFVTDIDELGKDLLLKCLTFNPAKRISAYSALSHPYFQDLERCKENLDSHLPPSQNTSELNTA
Sequence of CDK6 (P30281 whole entry partner): as the sequence (P30281 whole entry partner) above

IC50 (CDK4) [nM]	IC50 (CDK6) [nM]	SMILES
≤ 20	≤ 20	CCN1CCN(Cc2ccc(Nc3ncc(F)c(-c4ncnc5c4cc(C(C)=O)n5C4CC4)n3)nc2)CC1 [Compound I-41, N-(5-(4-ethylpiperazine-1-methyl)-pyridin-2-yl)-5-fluoro-4-(6-acetyl-7-cyclopropyl-7H-pyrrolo[2,3-d]pyrimidin-4-yl)pyrimidin-2-amine]
≤ 20	≤ 20	CCN1CCN(Cc2ccc(Nc3ncc(F)c(-c4ccc5ncc(C#N)n5c4)n3)nc2)CC1 [Compound I-34, N-(5-(4-ethylpiperazine-1-methyl)-pyridin-2-yl)-5-fluoro-4-(3-cyano-imidazo[1,2-a]pyridin-6-yl)pyrimidin-2-amine]
≤ 20	≤ 20	CC(C)c1nnc2ccc(-c3nc(Nc4ccc(N5CCNCC5)cn4)ncc3F)cn12 [Compound I-7, N-(5-(piperazin-1-yl)-pyridin-2-yl)-5-fluoro-4-(3-isopropyl-[1,2,4]triazolo[4,3-a]pyridine-6-yl)pyrimidin-2-amine]
≤ 20	20 to 100	CCN1CCN(Cc2ccc(Nc3ncc(F)c(-c4ccc5nnc(C(C)C)n5c4)n3)nc2)CC1 [Compound I-6, N-(5-(4-ethylpiperazine-1-methyl)-pyridin-2-yl)-5-fluoro-4-(3-isopropyl-[1,2,4]triazolo[4,3-a]pyridin-6-yl)pyrimidin-2-amine]
20 to 100	20 to 100	CCN1CCN(Cc2ccc(Nc3ncc(F)c(-c4ccc5nnc(C(C)=O)n5c4)n3)nc2)CC1 [Compound I-35, N-(5-(4-ethylpiperazine-1-methyl)-pyridin-2-yl)-5-fluoro-4-(3-acetyl-[1,2,4]triazolo[4,3-a]pyridin-6-yl)pyrimidin-2-amine]
20 to 100	20 to 100	CCN1CCN(Cc2ccc(Nc3ncc(F)c(-c4ccc5c(n4)c(C(F)(F)F)nn5C4CCCC4)n3)nc2)CC1 [Compound I-46, N-(5-(4-ethylpiperazine-1-methyl)-pyridin-2-yl)-5-fluoro-4-(1-cyclopentyl-3-trifluoromethyl-4-aza-1H-indazol-5-yl)pyrimidin-2-amine]

The remaining lines, values behind:

SMILES	IC50 (CDK4) [nM]	IC50 (CDK6) [nM]
CC(=O)c1cn(C2CCCC2)c2ccc(-c3nc(Nc4ccc(N5CCNCC5)cn4)ncc3F)cc12 [Compound I-3, N-(5-(piperazin-1-yl)-pyridin-2-yl)-5-fluoro-4-(1-cyclopentyl-3-acetyl-1H-indol-5-yl)pyrimidin-2-amine]	≤ 20	≤ 20
CC(C)c1c2ccc(-c3nc(Nc4ccc(N5CCNCC5)cn4)ncc3F)c(Cl)c2nn1C [Compound I-30, N-(5-(piperazin-1-yl)-pyridin-2-yl)-5-fluoro-4-(2-methyl-3-isopropyl-2H-7-chloro-indazol-6-yl)pyrimidin-2-amine]		20 to 100
CC(C)n1ccc2cc(-c3nc(Nc4ccc(N5CCNCC5)cn4)ncc3F)ccc21 [Compound I-2, N-(5-(piperazin-1-yl)-pyridin-2-yl)-5-fluoro-4-(1-isopropyl-1H-indol-5-yl)pyrimidine 2-amine]	≤ 20	≤ 20
Cc1nc2cnc(-c3nc(Nc4ccc(N5CCNCC5)cn4)ncc3F)nc2n1C(C)C [Compound I-8, N-(5-(piperazin-1-yl)-pyridin-2-yl)-5-fluoro-4-(9-isopropyl-8-methyl-9H-purin-2-yl)pyrimidin-2-amine]	≤ 20	20 to 100
CC(C)n1c(C(=O)N(C)C)cc2nc(-c3nc(Nc4ccc(N5CCNCC5)cn4)ncc3F)ccc21 [Compound I-25, N-(5-(piperazin-1-yl)-pyridin-2-yl)-5-fluoro-4-(1-isopropyl-2-formic acid diformamido-1H-4-azaindol-5-yl)pyrimidin-2-amine]	≤ 20	≤ 20
CC(C)c1c(C#N)n(C2CC2)c2ccc(-c3nc(Nc4ccc(CN5CCN(C6CC6)CC5)cn4)ncc3F)cc12 [Compound I-17, N-(5-(4-cyclopropylpiperazine-1-methyl)-pyridin-2-yl)-5-fluoro-4-(1-cyclopropyl-2-cyano-3-isopropyl-1H-indol-5-yl)pyrimidin-2-amine]		20 to 100

Reference: patent publication US10464927B2, “2,4-disubstituted pyrimidines as CDK inhibitors” (Shanghai Xunhe Pharmaceutical Technology Co. Ltd., priority 2016, dated 2019)
